Results published in BindingDB's records for doi:10.1016/S0960-894X(97)10080-4 (1997).

Assay: Tested for functional activity against neuronal nicotinic acetylcholine receptor(nAChR) expressed in K177 cells using isotopic rubidium efflux assay.

c1cnc2cc([C@@H]3CCCN3)oc2c1 [(S)-2-Pyrrolidin-2-yl-furo[3,2-b]pyridine]
EC50: > 1 mM
